We go through two molecules from patent publication US20050112251A1, “Preservation of liquids” (priority 2002, published 2005).

The test system of series [1] is Peacilomyces variotii 10274. Nature of the series: Natamycin MIC, agar diffusion method. The class given is cell-based. Here is the method: (§1) The minimal inhibition concentration (MIC) of these fungi or the minimal effective amount of the antifungal compound was determined using the agar diffusion method, which is well known in the art. Fungus spores were grown on agar plates containing different concentrations of natamycin. The concentration of natamycin on which no visible growth could be observed was considered as the minimal inhibition concentration for that particular fungus strain.

Series [2] has as its system Byssochlamys nivea 424.300. Nature of the series: Natamycin MIC, agar diffusion method. The class given is cell-based. To be noted: Paecilomyces niveus, agar plates, no visible growth. The method, then:
as §1

Series [3] concerns Stemphiliomma valparadisiacum 510.83. As to the kind of experiment: Natamycin MIC, agar diffusion method. The class given is cell-based. To be noted: isolated from apple juice. The method, then: as §1
The test system of series [4] is Zygosporium mycophilum 396.49. As to the kind of experiment: Natamycin MIC, agar diffusion method. The class given is cell-based. To be noted: isolated from apple pulp. The method, then: as §1
In series [5] the test system is Cladosporium tenuissimum 117.79. Nature of the series: Natamycin MIC, agar diffusion method. The class given is cell-based. To be noted: isolated from fruit. Here is the method: as §1
Series [6] deals with Mucor circinelloides 366.70. Nature of the series: Natamycin MIC, agar diffusion method. The class given is cell-based. To be noted: isolated from strawberries. The method, then: as §1
For series [7], the system named is Aspergillus versicolor 245.62. As to the kind of experiment: Natamycin MIC, agar diffusion method. The class given is cell-based. Here is the method:
as §1

Series [8] has as its system Talaromyces macrosporus 130.89. Nature of the series: Natamycin MIC, agar diffusion method. The class given is cell-based. To be noted: isolated from pineapple juice. Here is the method: as §1
Series [9] concerns Talaromyces macrosporus CBS 130.89 spores. As to the kind of experiment: Time to visible growth of heat-resistant fungus spores in apple juice. The class given is cell-based. To be noted: 104 spores/ml apple juice, incubation 25° C. Here is the method: This example describes the activity of natamycin against spores of a heat resistant fungal species, which is well known for causing spoilage problems in food industry. All experiments were executed on Talaromyces macrosporus CBS 130.89 spores suspended in pure apple juice. The chosen concentration of natamycin was sub-optimal. […] All experiment were executed in duplo.
Apple juice was inoculated with 104 spores/ml of apple juice. Natamycin was added at a concentration of 2.5 ppm. The spores suspended in the apple juice were submitted to a heat treatment at 80° C. for 5 minutes in order to stimulate their germination.
The samples were incubated at room temperature until fungal growth was visually observed (turbidity of the juice). Growth was observed after 4 days of incubation at 25° C.
This example describes the effect of a Pulsed Electric Field treatment against heat-resistant spores of Talaromyces macrosporus CBS 130.89. The pulsed electric fields treatments were applied as describe in the example 3. One sample point was validated for a frequency of 8.6 Hz (treatment A).
The chosen inoculation levels, natamycin concentrations and PEF treatments were as described in the examples 8 and 9. The natamycin can be added before or after the PEF treatment.
All samples were incubated at room temperature until fungal growth was visually observed (turbidity of the juice). […]

The test system of a further series is most food born fungi. To be noted: cited from earlier work.
Series [10] relates to Zygosaccharomyces bailii CBS 1097. Nature of the series: Time to spoilage of inoculated apple juice (visible growth, turbidity). The class given is cell-based. To be noted: room temperature. Here is the method:
(§2) All experiments were done with pure apple juice. The chosen concentrations of natamycin were sub-optimal (=below MIC).
(§3) All experiments were executed in duplo. • a. The effect of natamycin against the spore forming yeast Zygosaccharomyces bailii CBS 1097 was examined. Apple juice was inoculated with 10^4 Colony Forming Units (CFU)/ml of apple juice. Natamycin was added at a concentration of 1 ppm. • b. The effect of natamycin was tested against Penicillium italicum ATCC 36041. A spore suspension was prepared using well-known methods. The freshly prepared spore suspension was added to apple juice to a final concentration of 104 spores/ml of apple juice. Natamycin was added at a concentration of 5 ppm.
(§4) The samples were incubated at room temperature until fungal growth was visually observed (turbidity of the juice).
(§5) The pulsed electric fields treatments were applied according to well-known procedures for PEF-treatments of liquids. The apple juice to be treated was pumped through the PEF-treatment chamber with a flow rate of 60 litres per hour. The treatment temperature also called juice temperature before the PEF-treatment chamber was 17° C. The value of the electric field strength and the pulse length kept constant were 35 kV/cm and 2-μs, respectively. Three samples points were validated by variation of the pulse frequency, from 8.6 Hz (treatment A) to 5.7 Hz (treatment B) and 2.9 Hz (treatment C). With the above-mentioned parameters, the apple juice received 12, 8 or 4 pulses; those correspond to an energy density of 71, 37 and 12.5 J/ml of juice, respectively.
The chosen inoculation levels, natamycin concentrations and PEF treatments were as described in the examples 2 and 3.
(§6) All samples were incubated at room temperature until fungal growth was visually observed (turbidity of the juice).
Zygosaccharomyces bailii was inoculated in apple juice as described in example 2. Sorbate was added at a concentration of 800 ppm.
The PEF-treatment was used as described in the example 3. […] (treatment B).
The samples were incubated at room temperature.

Series [11] relates to fungal spores which survived the PEF treatment. Nature of the series: Inhibition of outgrowth of fungal spores, summary of agar diffusion MIC. To be noted: summary of Table 1. The class given is cell-based. The method, then:
as §1

For series [12] the following is noted: cited from earlier work.
Series [13] in a line: Stability of antifungal agent in apple juice during PEF treatment (HPLC). The class given is physicochemical. To be noted: for inactivation of the antifungal agent by the PEF treatment: general statement in the description. Here is the method: as §5
This example illustrates the resistance of natamycin to PEF treatments. Natamycin was added to apple juice at a concentration of 5 ppm and submitted to pulsed electric field treatments as described in example 3. The natamycin content after the PEF-treatments was determined by HPLC.

The subject of series [14] is Penicillium italicum ATCC 36041. Nature of the series: Time to spoilage of inoculated apple juice (visible growth, turbidity). The class given is cell-based. To be noted: room temperature. The method, then:
as §2, §3, §4, §5
The chosen inoculation levels, natamycin concentrations and PEF treatments were as described in the examples 2 and 3. The natamycin can be added before or after the PEF treatment.
as §6

[15] abbreviates: natamycin 5 ppm + PEF-treatment C (2.9 Hz, 12.5 J/ml).

SMILES strings stand for the structures. Bounds are passed on as bounds.

With `C[C@@H]1C/C=C/C=C/C=C/C=C/[C@H](O[C@@H]2O[C@H](C)[C@@H](O)[C@H](N)[C@@H]2O)C[C@@H]2O[C@](O)(C[C@@H](O)C[C@H]3O[C@@H]3/C=C/C(=O)O1)C[C@H](O)[C@H]2C(=O)O` [natamycin], the MIC in series [1] was under 2.5 µg/mL; in [2], under 2.5 µg/mL; in series [3], under 5 µg/mL; in series [4] it was under 2.5 µg/mL; in series [5] it was under 2.5 µg/mL; in series [6], under 2.5 µg/mL. Besides, the MIC in series [7] and in series [8] was under 2.5 µg/mL in each case. In addition, the “Time until growth observed” value in series [9] (natamycin 2.5 ppm + PEF-treatment A) was determined as 9 days; in series [9] (natamycin 2.5 ppm alone, heat activation 80° C. 5 minutes), 4 days. In the series on most food born fungi, the “MIC (Minimal Inhibition Concentration)” value was “less than 10 ppm”. Moreover, the “Time to spoilage, natamycin added before PEF-treatment” value in [10] (natamycin 1 ppm + PEF-treatment A (8.6 Hz, 71 J/ml)) is reported as over 30 days; in series [14] (setting [15]), over 30 days. Also, the “Time to spoilage, natamycin added after PEF-treatment” value in [10] (natamycin 1 ppm + PEF-treatment B (5.7 Hz, 37 J/ml)) is given as over 30 days; in [14] (setting [15]), over 30 days. Moreover, the Time to spoilage in series [10] (natamycin 1.0 ppm alone, 10^4 CFU/ml) amounted to 2 days; in series [14] (natamycin 5.0 ppm alone, 104 spores/ml) it was 4 days. Besides, the “concentration that inhibits the outgrowth of fungal spores” value in series [11] is given as under 5 ppm. In addition, the solubility in water in [12] is 30 to 50 ppm. Also, the “natamycin content after the PEF-treatments (HPLC)” value in series [13] (5 ppm in apple juice, PEF treatments as in example 3) is “None of the analyzed samples showed a decrease”. In addition, the “inactivation of the antifungal agent by the PEF treatment” value in series [13] is recorded as “not inactivated”.

Turning to `CC=CC=CC(=O)O` [sorbate], the “Time without observed fungal growth” value in series [10] (sorbate 800 ppm + PEF-treatment B) is on record as “at least 30 days”. Further, the “Time until fungal growth visually observed” value in series [10] (sorbate 800 ppm alone) was found to be 6 days. Besides, in series [13], the “inactivation of the antifungal agent by the PEF treatment” value is reported as “not inactivated”.
